ChEMBL document CHEMBL1201862, “PubChem BioAssay data set” (2004)
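A five-concentration, 48-hour dose response in 96-well plates underlies each endpoint, interpolated linearly between surrounding concentrations. Abbreviation: GI50, concentration required for 50% inhibition of growth.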 Activity calls are given as the source filed them. Rule as the data show it: active = GI50 up to about 1.1 µM and inactive = higher.

Experiments:
Assay in all cases: NCI-60 cell line screen, 48 h
HOP-62 = test system: HOP-62
HOP-92 = test system: HOP-92
EKVX = test system: EKVX
K562 = test system: K562
MCF7 = test system: MCF7
SK-MEL-28 = test system: SK-MEL-28
NCI-H23 = test system: NCI-H23
RXF 393 = test system: RXF 393
A498 = test system: A498
SF-295 = test system: SF-295
SF-539 = test system: SF-539
UO-31 = test system: UO-31
SF-268 = test system: SF-268
COLO 205 = test system: COLO 205
T47D = test system: T47D
A549 = test system: A549
NCI-H226 = test system: NCI-H226
NCI-H460 = test system: NCI-H460
BT-549 = test system: BT-549

SMILES	GI50 (HOP-62)	GI50 (HOP-92)	GI50 (EKVX)	GI50 (K562)	GI50 (MCF7)	GI50 (SK-MEL-28)	GI50 (NCI-H23)	GI50 (RXF 393)	GI50 (A498)	GI50 (SF-295)	GI50 (SF-539)	GI50 (UO-31)	GI50 (SF-268)	GI50 (COLO 205)	GI50 (T47D)	GI50 (A549)	GI50 (NCI-H226)	GI50 (NCI-H460)	GI50 (BT-549)
Sc1nnc(COc2ccc(Cl)cc2)n1-c1ccccc1	> 100 µM (inactive)	> 100 µM (inactive)	> 100 µM (inactive)	95.7 µM (inactive)	> 100 µM (inactive)	> 100 µM (inactive)	> 100 µM (inactive)	> 100 µM (inactive)	> 100 µM (inactive)	> 100 µM (inactive)	> 100 µM (inactive)	61.2 µM (inactive)	> 100 µM (inactive)	88.1 µM (inactive)	30.4 µM (inactive)	> 100 µM (inactive)	> 100 µM (inactive)	> 100 µM (inactive)	–
COc1ccccc1N=C(S)Nc1ccccn1	63.4 µM (inactive)	–	55 µM (inactive)	> 100 µM (inactive)	> 100 µM (inactive)	> 100 µM (inactive)	–	59 µM (inactive)	> 100 µM (inactive)	66.2 µM (inactive)	67.9 µM (inactive)	> 100 µM (inactive)	45.6 µM (inactive)	> 100 µM (inactive)	–	> 100 µM (inactive)	> 100 µM (inactive)	> 100 µM (inactive)	> 100 µM (inactive)
COc1cc(C2C3C=CC=C4CC=CC(=C43)C3CCC(=O)N32)cc(OC)c1OC (stereo unspecified)	> 100 µM (inactive)	85.9 µM (inactive)	> 100 µM (inactive)	> 100 µM (inactive)	> 100 µM (inactive)	> 100 µM (inactive)	–	–	> 100 µM (inactive)	> 100 µM (inactive)	> 100 µM (inactive)	48.9 µM (inactive)	> 100 µM (inactive)	–	36.1 µM (inactive)	99.1 µM (inactive)	0.224 µM (active)	> 100 µM (inactive)	–
Cc1cc(Cl)nc(Nc2nc3ccccc3[nH]2)n1	> 100 µM (inactive)	21.8 µM (inactive)	–	> 100 µM (inactive)	> 100 µM (inactive)	> 100 µM (inactive)	> 100 µM (inactive)	> 100 µM (inactive)	> 100 µM (inactive)	> 100 µM (inactive)	> 100 µM (inactive)	> 100 µM (inactive)	> 100 µM (inactive)	> 100 µM (inactive)	–	> 100 µM (inactive)	> 100 µM (inactive)	> 100 µM (inactive)	> 100 µM (inactive)
COc1ccc(NC(=O)/C(CC2=Nc3ccc([N+](=O)[O-])cc3NC2O)=N\NC(=O)C[N+](C)(C)C)c(OC)c1 (stereo unspecified)	22.2 µM (inactive)	72.3 µM (inactive)	54.7 µM (inactive)	–	> 100 µM (inactive)	97.9 µM (inactive)	84.3 µM (inactive)	21.6 µM (inactive)	–	> 100 µM (inactive)	26.5 µM (inactive)	34.3 µM (inactive)	> 100 µM (inactive)	43 µM (inactive)	–	40.5 µM (inactive)	> 100 µM (inactive)	40.5 µM (inactive)	> 100 µM (inactive)
O=C1N/N=C\c2ccc(cc2)OCc2cccc(n2)COc2ccc(cc2)/C=N\NC1=O	> 25 µM (inactive)	> 25 µM (inactive)	> 25 µM (inactive)	> 25 µM (inactive)	> 25 µM (inactive)	> 25 µM (inactive)	> 25 µM (inactive)	> 25 µM (inactive)	> 25 µM (inactive)	> 25 µM (inactive)	> 25 µM (inactive)	> 25 µM (inactive)	> 25 µM (inactive)	> 25 µM (inactive)	–	> 25 µM (inactive)	> 25 µM (inactive)	> 25 µM (inactive)	> 25 µM (inactive)
COc1cc2c(c(OC)c1OC)-c1ccc(SC)cc1C(O)CC2 (stereo unspecified)	–	> 100 µM (inactive)	2.54 µM (inactive)	< 0.01 µM (active)	< 0.01 µM (active)	55.6 µM (inactive)	< 0.01 µM (active)	–	12.1 µM (inactive)	< 0.01 µM (active)	< 0.01 µM (active)	–	< 0.01 µM (active)	< 0.01 µM (active)	> 100 µM (inactive)	< 0.01 µM (active)	–	< 0.01 µM (active)	–
COC(=O)[C@H](CCSC)NC(=O)N[C@H](C)c1ccccc1	> 100 µM (inactive)	43.5 µM (inactive)	> 100 µM (inactive)	> 100 µM (inactive)	> 100 µM (inactive)	> 100 µM (inactive)	> 100 µM (inactive)	–	> 100 µM (inactive)	> 100 µM (inactive)	> 100 µM (inactive)	> 100 µM (inactive)	> 100 µM (inactive)	> 100 µM (inactive)	–	> 100 µM (inactive)	> 100 µM (inactive)	> 100 µM (inactive)	> 100 µM (inactive)
